{"source": "ChEMBL document CHEMBL5331122", "about": "“Structure-Activity Relationship Study of Antimicrobial Peptide PE2 Delivered Novel Linear Derivatives with Potential of Eradicating Biofilms and Low Incidence of Drug Resistance” (J Med Chem, 2023)", "key": {"[1]": {"tested_on": "Klebsiella pneumoniae", "assay": "Antibacterial activity against Klebsiella pneumoniae ATCC 700603 assessed as bacterial growth inhibition incubated for 18 hrs by broth microdilution method", "assay_type": "functional"}, "[2]": {"tested_on": "Pseudomonas aeruginosa", "assay": "Antibacterial activity against Pseudomonas aeruginosa ATCC 27853 assessed as bacterial growth inhibition incubated for 18 hrs by broth microdilution method", "assay_type": "functional"}, "[3]": {"tested_on": "Staphylococcus aureus", "assay": "Antibacterial activity against Staphylococcus aureus ATCC 25923 assessed as bacterial growth inhibition incubated for 18 hrs by broth microdilution method", "assay_type": "functional"}, "[4]": {"tested_on": "Enterococcus faecalis", "assay": "Antibacterial activity against Enterococcus faecalis ATCC 29212 assessed as bacterial growth inhibition incubated for 18 hrs by broth microdilution method", "assay_type": "functional"}, "[5]": {"tested_on": "Escherichia coli", "assay": "Antibacterial activity against Escherichia coli ATCC 25922 assessed as fold increase in MIC in presence of NaCl", "assay_type": "functional"}, "[6]": {"tested_on": "Escherichia coli", "assay": "Antibacterial activity against Escherichia coli ATCC 25922 assessed as fold increase in MIC in presence of MgCl2", "assay_type": "functional"}, "[7]": {"tested_on": "Escherichia coli", "assay": "Antibacterial activity against Escherichia coli ATCC 25922 assessed as fold increase in MIC in presence of ZnCl2", "assay_type": "functional"}, "[8]": {"tested_on": "Escherichia coli", "assay": "Antibacterial activity against Escherichia coli ATCC 25922 assessed as fold increase in MIC in presence of FeCl3", "assay_type": "functional"}, "[9]": {"tested_on": "Staphylococcus aureus", "assay": "Antibacterial activity against Staphylococcus aureus ATCC 25923 assessed as fold increase in MIC in presence of KCl", "assay_type": "functional"}, "[10]": {"tested_on": "Staphylococcus aureus", "assay": "Antibacterial activity against Staphylococcus aureus ATCC 25923 assessed as fold increase in MIC in presence of ZnCl2", "assay_type": "functional"}, "[11]": {"tested_on": "Staphylococcus aureus", "assay": "Antibacterial activity against Staphylococcus aureus ATCC 25923 assessed as fold increase in MIC in presence of FeCl3", "assay_type": "functional"}, "[12]": {"tested_on": "Escherichia coli", "assay": "Antibacterial activity against Escherichia coli ATCC 25922 in presence of 10% mouse serum measured for 6 hrs", "assay_type": "functional, organism-based"}, "[13]": {"tested_on": "Staphylococcus aureus", "assay": "Antibacterial activity against Staphylococcus aureus ATCC 25923 in presence of 10% mouse serum measured for 6 hrs", "assay_type": "functional, organism-based"}, "[14]": {"tested_on": "Escherichia coli", "assay": "Antimicrobial activity against Escherichia coli ATCC 25922 assessed as reduction in survival bacterial growth in presence of chymotrypsin measured after 6 hrs", "assay_type": "functional, organism-based"}, "[15]": {"tested_on": "Escherichia coli", "assay": "Inhibition of biofilm formation in Escherichia coli ATCC 25922 assessed as inhibition of biofilm formation at 1/4 times MIC incubated for 24 hrs by crystal violet staining based analysis", "assay_type": "functional, organism-based"}, "[16]": {"tested_on": "Escherichia coli", "assay": "Inhibition of biofilm formation in Escherichia coli ATCC 25922 assessed as inhibition of biofilm formation at 1/2 times MIC incubated for 24 hrs by crystal violet staining based analysis", "assay_type": "functional, organism-based"}, "[17]": {"tested_on": "Escherichia coli", "assay": "Inhibition of biofilm formation in Escherichia coli ATCC 25922 assessed as inhibition of biofilm formation at 1 to 2 times MIC incubated for 24 hrs by crystal violet staining based analysis", "assay_type": "functional, organism-based"}, "[18]": {"tested_on": "Staphylococcus aureus", "assay": "Inhibition of biofilm formation in Staphylococcus aureus ATCC 25923 assessed as inhibition of biofilm formation at 1/2 times MIC incubated for 24 hrs by crystal violet staining based analysis", "assay_type": "functional, organism-based"}, "[19]": {"tested_on": "Staphylococcus aureus", "assay": "Inhibition of biofilm formation in Staphylococcus aureus ATCC 25923 assessed as inhibition of biofilm formation at 1 times MIC incubated for 24 hrs by crystal violet staining based analysis", "assay_type": "functional, organism-based"}, "[20]": {"tested_on": "Staphylococcus aureus", "assay": "Inhibition of biofilm formation in Staphylococcus aureus ATCC 25923 assessed as inhibition of biofilm formation at 2 times MIC incubated for 24 hrs by crystal violet staining based analysis", "assay_type": "functional, organism-based"}, "[21]": {"tested_on": "Escherichia coli", "assay": "Antibiofilm activity against Escherichia coli ATCC 25922 assessed as biofilm eradication at 1 times MIC incubated for 24 hrs", "assay_type": "functional, organism-based"}, "[22]": {"tested_on": "Escherichia coli", "assay": "Antibiofilm activity against Escherichia coli ATCC 25922 assessed as biofilm eradication at 2 times MIC incubated for 24 hrs", "assay_type": "functional, organism-based"}, "[23]": {"tested_on": "Escherichia coli", "assay": "Antibiofilm activity against Escherichia coli ATCC 25922 assessed as biofilm eradication at 4 times MIC incubated for 24 hrs", "assay_type": "functional, organism-based"}, "[24]": {"tested_on": "Staphylococcus aureus", "assay": "Antibiofilm activity against Staphylococcus aureus ATCC 25923 assessed as biofilm eradication at 2 times MIC incubated for 24 hrs", "assay_type": "functional, organism-based"}, "[25]": {"tested_on": "Staphylococcus aureus", "assay": "Antibiofilm activity against Staphylococcus aureus ATCC 25923 assessed as biofilm eradication at 4 times MIC incubated for 24 hrs", "assay_type": "functional, organism-based"}, "[26]": {"tested_on": "Staphylococcus aureus", "assay": "Antibiofilm activity against Staphylococcus aureus ATCC 25923 assessed as biofilm eradication at 8 times MIC incubated for 24 hrs", "assay_type": "functional, organism-based"}, "[27]": {"tested_on": "Escherichia coli", "assay": "Induction of drug resistance against Escherichia coli ATCC 25922 assessed as fold increase in MIC measured upto 15 passages by sequential passaging method", "assay_type": "functional"}, "[28]": {"tested_on": "Escherichia coli", "assay": "Bactericidal activity against Escherichia coli ATCC 25922 assessed as inhibition of bacterial growth at 0.5 to 2 times MIC by time-kill assay", "assay_type": "functional, organism-based", "conditions": "time <= 360.0 min, TDE = time-dependent effect"}, "[29]": {"tested_on": "Staphylococcus aureus", "assay": "Bactericidal activity against Staphylococcus aureus ATCC 25923 assessed as inhibition of bacterial growth incubated upto 360 mins by time-kill assay", "assay_type": "functional, organism-based"}, "[30]": {"tested_on": "Escherichia coli", "assay": "Bactericidal activity against Escherichia coli ATCC 25922 assessed as inhibition of bacterial growth at 1/2 times MIC measured at 180 mins by time-kill assay", "assay_type": "functional, organism-based"}, "[31]": {"tested_on": "Staphylococcus aureus", "assay": "Bactericidal activity against Staphylococcus aureus ATCC 25923 assessed as inhibition of bacterial growth at 1/2 times MIC measured upto 360 mins by time-kill assay", "assay_type": "functional, organism-based"}, "[32]": {"tested_on": "Staphylococcus aureus", "assay": "Bactericidal activity against Staphylococcus aureus ATCC 25923 assessed as inhibition of bacterial growth at 1 times MIC measured upto 360 mins by time-kill assay", "assay_type": "functional, organism-based"}, "[33]": {"tested_on": "Escherichia coli", "assay": "Antimicrobial activity against Escherichia coli ATCC 25922 assessed as reduction in microbial growth measured for 18 hrs in presence of 512 microg/ml LPS", "assay_type": "functional, organism-based"}, "[34]": {"tested_on": "Cell membrane", "assay": "Induction of outer membrane permeabilization in Escherichia coli ATCC 25922 assessed as increase in fluorescence intensity at 1 to 4 times MIC measured for 12 hrs by NPN uptake assay", "assay_type": "subcellular"}, "[35]": {"tested_on": "Cell membrane", "assay": "Induction of outer membrane permeabilization in Escherichia coli ATCC 25922 assessed as increase in fluorescence intensity at 1 times MIC measured for 12 hrs by NPN uptake assay", "assay_type": "subcellular"}, "[36]": {"tested_on": "Cell membrane", "assay": "Induction of outer membrane permeabilization in Escherichia coli ATCC 25922 assessed as increase in fluorescence intensity at 2 times MIC measured for 12 hrs by NPN uptake assay", "assay_type": "subcellular"}, "[37]": {"tested_on": "Cell membrane", "assay": "Induction of inner membrane permeabilization in Escherichia coli ML-35 ATCC 43837 assessed as increase in fluorescence intensity at 1 to 4 times MIC incubated upto 150 mins by ONPG staining based analysis", "assay_type": "subcellular"}, "[38]": {"tested_on": "Cell membrane", "assay": "Induction of cell membrane damage in Escherichia coli ATCC 25922 at 2 times MIC after 0.5 to 2 hrs by propidium iodide staining based flow cytometer assay", "assay_type": "subcellular", "conditions": "time 0.5-2 hrs"}, "[39]": {"tested_on": "Cell membrane", "assay": "Induction of cell membrane damage in Staphylococcus aureus ATCC 25923 at 2 times MIC after 0.5 to 2 hrs by propidium iodide staining based flow cytometer assay", "assay_type": "subcellular", "conditions": "time 0.5-2 hrs"}, "[40]": {"tested_on": "Escherichia coli", "assay": "Induction of membrane morphological changes in Escherichia coli ATCC 25922 at 4 times MIC measured at 0.5 to 2 hrs by SEM analysis", "assay_type": "functional, organism-based", "conditions": "time 0.5-2 hrs"}, "[41]": {"tested_on": "Staphylococcus aureus", "assay": "Induction of membrane morphological changes in Staphylococcus aureus ATCC 25923 assessed as appearance of adherent bacterial cells at 4 times MIC measured at 0.5 to 2 hrs by SEM analysis", "assay_type": "functional, organism-based", "conditions": "time 0.5-2 hrs"}}, "note": "Active and inactive are the calls of the source. No cut-off for these calls is given here."}
{"smiles": "CC[C@H](C)[C@@H]1NC(=O)[C@H](CCN)NC(=O)C[C@@H](C(C)C)OC(=O)[C@H]([C@@H](C)O)NC(=O)[C@H](CC(C)C)NC(=O)[C@@H](C(C)C)NC(=O)[C@H](CCN)NC(=O)[C@H](CC(C)C)NC(=O)[C@@H](Cc2ccccc2)NC(=O)[C@H](CCN)NC1=O", "values": [{"measurement": "MIC", "setting": "[1]", "value": 4, "unit": "µg/mL"}, {"measurement": "MIC", "setting": "[2]", "value": 8, "unit": "µg/mL"}, {"measurement": "MIC", "setting": "[3]", "value": 8, "unit": "µg/mL"}, {"measurement": "MIC", "setting": "[4]", "value": 16, "unit": "µg/mL"}, {"measurement": "fold change (FC)", "setting": "[5]", "value": "<=2"}, {"measurement": "fold change (FC)", "setting": "[6]", "value": "<=2"}, {"measurement": "fold change (FC)", "setting": "[7]", "value": "<=2"}, {"measurement": "fold change (FC)", "setting": "[8]", "value": "<=2"}, {"measurement": "fold change (FC)", "setting": "[9]", "value": "<=2"}, {"measurement": "fold change (FC)", "setting": "[10]", "value": "<=2"}, {"measurement": "fold change (FC)", "setting": "[11]", "value": "<=2"}, {"measurement": "Activity", "setting": "[12]", "value": "Active"}, {"measurement": "Activity", "setting": "[13]", "value": "Active"}, {"measurement": "Activity", "setting": "[14]", "value": "Active"}, {"measurement": "inhibition", "setting": "[15]", "value": "inactive"}, {"measurement": "inhibition", "setting": "[16]", "value": "Active"}, {"measurement": "inhibition", "setting": "[17]", "value": "Active"}, {"measurement": "inhibition", "setting": "[18]", "value": "Active"}, {"measurement": "inhibition", "setting": "[19]", "value": "Active"}, {"measurement": "inhibition", "setting": "[20]", "value": "Active"}, {"measurement": "Activity", "setting": "[21]", "value": "inactive"}, {"measurement": "Activity", "setting": "[22]", "value": "Active"}, {"measurement": "Activity", "setting": "[23]", "value": "Active"}, {"measurement": "Activity", "setting": "[24]", "value": "Active"}, {"measurement": "Activity", "setting": "[25]", "value": "Active"}, {"measurement": "Activity", "setting": "[26]", "value": "Active"}, {"measurement": "fold change (FC)", "setting": "[27]", "value": 64}, {"measurement": "Activity", "setting": "[28]", "value": "Tde"}, {"measurement": "Activity", "setting": "[29]", "value": "Dose-Dependent Effect"}, {"measurement": "Activity", "setting": "[30]", "value": "Active"}, {"measurement": "Activity", "setting": "[31]", "value": "inactive"}, {"measurement": "Activity", "setting": "[32]", "value": "inactive"}, {"measurement": "Activity", "setting": "[33]", "value": "inactive"}, {"measurement": "Activity", "setting": "[34]", "value": "Active"}, {"measurement": "Activity", "setting": "[35]", "value": "Active"}, {"measurement": "Activity", "setting": "[36]", "value": "Active"}, {"measurement": "Activity", "setting": "[37]", "value": "Active"}, {"measurement": "Activity", "setting": "[38]", "value": "Active"}, {"measurement": "Activity", "setting": "[39]", "value": "Active"}, {"measurement": "Activity", "setting": "[40]", "value": "Active"}, {"measurement": "Activity", "setting": "[41]", "value": "Active"}]}
